Experimental findings from patent publication US6730792B2, “β3 adrenergic agonists” (Eli Lilly and Company, priority 2000, dated 2004) are described below.

This assay addresses T1, human β3 adrenergic receptor (Homo sapiens, UniProt P13945).
T1 construct: expressed in transfected cells; host or cells: DXB-11 Chinese hamster ovary (CHO) cell line, stably transfected (phd expression vector)
The experiment in a line: whole cell receptor coupled c-AMP assay, human β3 receptor in CHO cells (EC50, Emax relative to isoproterenol). It counts as cell-based. The method, boiled down:
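Stably transfected DXB-11 CHO cells (20,000/well) were exposed to compound for 20 min at 37 °C in HBSS/HEPES buffer with 1 mM IBMX, pH 7.4. cAMP was measured by SPA. EC50 came from a four-parameter logistic fit, and Emax is the maximal response as a percentage of isoproterenol's.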

The mark [1] stands for this setting: Emax ± standard error of the mean, average of at least 3 runs except where n = 1, compound tested in the isolated form listed.
Setting [2] is: Emax ± SEM, average of at least 3 runs except as otherwise indicated, tested as the isolated form listed.
[3] abbreviates: % intrinsic activity relative to isoproterenol maximal response, average of at least 3 runs, c-AMP in transfected CHO cells.

Bounds are passed on as bounds.

T1 sequence (P13945 whole entry): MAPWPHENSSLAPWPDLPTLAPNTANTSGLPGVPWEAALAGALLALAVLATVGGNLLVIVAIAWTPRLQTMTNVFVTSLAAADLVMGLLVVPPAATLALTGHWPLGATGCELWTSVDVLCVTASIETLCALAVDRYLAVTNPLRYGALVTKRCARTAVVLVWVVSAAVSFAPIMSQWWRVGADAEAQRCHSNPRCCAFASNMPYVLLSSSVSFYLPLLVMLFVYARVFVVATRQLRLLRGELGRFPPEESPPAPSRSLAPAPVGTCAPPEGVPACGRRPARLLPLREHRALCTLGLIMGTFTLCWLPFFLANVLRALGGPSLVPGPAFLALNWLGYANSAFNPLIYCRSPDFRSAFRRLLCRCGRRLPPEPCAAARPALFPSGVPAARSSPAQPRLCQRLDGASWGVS

As for `CC(C)(Cc1ccccc1-c1ccc(C#N)cc1)NC[C@H](O)COc1ccccc1-c1ccno1.Cl` [Example 290], under setting [1], the “Emax (%) ± SEM” value came to 22.7 ± 1.7%.

`CC(C)(Cc1ccc(Oc2ncccc2C(N)=O)cc1)NC[C@H](O)COc1ccccc1-c1nccs1.Cl` [Example 71]: under setting [1], the “Emax (%) ± SEM” value is on record as 65.6 ± 1.3%. Take `CC(C)(Cc1ccc(Oc2ncccc2C(N)=O)cc1)NC[C@H](O)COc1ccccc1-n1ccc(C=O)c1` [Example 273]: under setting [1], the “Emax (%) ± SEM” value is on record as 40.3 ± 0.5%. Take `Cn1ccc(-c2ccccc2OC[C@@H](O)CNC(C)(C)Cc2ccc(Oc3ccc(S(C)(=O)=O)cc3)cc2)n1` [Example 128]: the “Emax (%) ± SEM” value under setting [1] was 40.6 n = 1%. With `COC(=O)c1ccc(Oc2ccc(CC(C)(C)NC[C@H](O)COc3ccccc3-c3nccs3)cc2)c(Cl)c1` [Example 140], the “Emax (%) ± SEM” value under setting [1] is given as 48.9 ± 2.5%. In the case of `CC(C)(Cc1ccc(Oc2ccc(C#N)cc2)cc1)NC[C@H](O)COc1ccccc1-c1cccs1.O=C(O)C(F)(F)F` [Example 119], the “Emax (%) ± SEM” value under setting [1] is 55.2 ± 3.6%. `CC(C)(Cc1ccc(Oc2ccc(C(N)=O)s2)cc1)NC[C@H](O)COc1ccccc1-c1nccs1.O=C(O)C(F)(F)F` [Example 329]: under setting [2], the “Emax (%) ± SEM” value amounted to 60.2 ± 3.0%.

Turning to `CC(C)(Cc1ccc(Oc2ncccc2C#N)cc1)NC[C@H](O)COc1ccccc1-c1ccoc1.Cl` [Example 306], the “Emax (%) ± SEM” value under setting [2] came to 82.4 ± 4.0%.

With `CC(C)(Cc1ccc(Oc2cccnc2C#N)cc1)NC[C@H](O)COc1ccccc1-c1ccno1.O=C(O)C(F)(F)F` [Example 146], the “Emax (%) ± SEM” value under setting [1] is listed as 58.7 ± 2.9%. The same measure, in the same setting: the same measure for `CC(C)(Cc1ccc(Oc2ccc(C#N)cn2)cc1)NC[C@H](O)COc1ccccc1-c1ccn[nH]1` [Example 8]: 33.7 n = 1%.

For `CC(C)(Cc1ccc(Oc2ncccc2C(N)=O)cc1)NC[C@H](O)COc1ccc(-c2ccno2)cc1` [Example 94], under setting [1], the “Emax (%) ± SEM” value is on record as less than 10%.

For `CC(C)(Cc1ccc(Oc2cnccn2)cc1)NC[C@H](O)COc1ccccc1-c1cscn1.Cl` [Example 256], under setting [1], the “Emax (%) ± SEM” value was found to be 50.6 ± 1.8%.

`CC(C)(Cc1ccc(Oc2cccnc2C#N)cc1)NC[C@H](O)COc1ccccc1-c1ccon1.Cl` [Example 297]: the “Emax (%) ± SEM” value under setting [1] worked out at 74.5 ± 6.7%. For `CC(C)(Cc1ccc(Oc2ccc(S(C)(=O)=O)cc2)cc1)NC[C@H](O)COc1ccccc1-c1ccn[nH]1` [Example 133], the “Emax (%) ± SEM” value under setting [1] is on record as 21.4 n = 1%. On to `CC(C)(Cc1ccc(Oc2ccc(C(N)=O)cn2)cc1)NC[C@H](O)COc1ccccc1N1CCNCC1.Cl.Cl.Cl` [Example 25], for which the “Emax (%) ± SEM” value under setting [1] turned out to be 13.7 ± 3.5%. Still for that read-out and setting: for `CC(C)(Cc1ccc(Oc2ccc(S(C)(=O)=O)cc2F)cc1)NC[C@H](O)COc1ccccc1-c1cccs1.O=C(O)C(F)(F)F` [Example 223] the value was 63.7 ± 3.1%; for `CC(C)(Cc1ccc(Oc2ncccc2C(N)=O)cc1)NC[C@H](O)COc1ccccc1-c1nccs1` [Example 70], 73.8 ± 6.0%; for `CC(C)(Cc1ccc(Oc2ncccc2C(N)=O)cc1)NC[C@H](O)COc1ccccc1-c1cccs1` [Example 68], 83.7 ± 3.0%. Take `CC(C)(Cc1ccc(Oc2ncccc2C#N)cc1)NC[C@H](O)COc1ccccc1-c1cc2ccccc2s1` [Example 386]: the “Emax (%) ± SEM” value under setting [3] came out at 46.9 ± 6.7%. For `CC(C)(Cc1ccc(Oc2ccc(C#N)cn2)cc1)NC[C@H](O)COc1ccccc1-c1cc2ccccc2s1` [Example 384], the “Emax (%) ± SEM” value under setting [3] was 45.4 ± 5.6%. On to `CC(C)(Cc1ccc(Oc2ccc(C#N)cc2F)cc1)NC[C@H](O)COc1ccccc1-c1nccs1.O=C(O)C(F)(F)F` [Example 188], for which, under setting [1], the “Emax (%) ± SEM” value is given as 38.3 ± 5.7%.

For the compound `CC(C)(Cc1ccc(Oc2ncccc2Cl)cc1)NC[C@H](O)COc1ccccc1-c1ccno1.O=C(O)C(F)(F)F` [Example 180], the “Emax (%) ± SEM” value under setting [1] was determined as 52.4 ± 6.9%. For `CC(C)(Cc1ccc(Oc2ccc(C#N)cc2Cl)cc1)NC[C@H](O)COc1ccccc1-c1cccs1.O=C(O)C(F)(F)F` [Example 161], the “Emax (%) ± SEM” value under setting [1] was found to be 52.5 ± 4.7%.

Consider `CC(=O)c1ccc(-c2ccccc2OC[C@@H](O)CNC(C)(C)Cc2ccc(Oc3ncccc3C(N)=O)cc2)s1.O=C(O)C(F)(F)F` [Example 419], for which, under setting [3], the “Emax (%) ± SEM” value came out at 87.5 ± 1.8%. Consider `Cc1ccc(-c2ccccc2OC[C@@H](O)CNC(C)(C)Cc2ccc(Oc3ccc(C(N)=O)cn3)cc2)s1.Cl` [Example 409], for which, under setting [3], the “Emax (%) ± SEM” value is 71.3 ± 3.9%. Take `CC(C)(Cc1ccc(Oc2ccc(S(C)(=O)=O)cc2)cc1)NC[C@H](O)COc1ccccc1-c1ccno1` [Example 132]: under setting [1], the “Emax (%) ± SEM” value was 34.6 ± 7.8%.

Regarding `CC(C)(Cc1ccc(Oc2ccc(C(N)=O)cc2Cl)cc1)NC[C@H](O)COc1ccccc1-c1ccno1.O=C(O)C(F)(F)F` [Example 166], the “Emax (%) ± SEM” value under setting [1] is 58.3 ± 9.5%.

In the case of `CC(C)(Cc1ccc(Oc2cccc(Cl)c2C(N)=O)cc1)NC[C@H](O)COc1ccccc1-c1ccno1.O=C(O)C(F)(F)F` [Example 219], the “Emax (%) ± SEM” value under setting [1] came out at 50.4 ± 6.3%.

As for `CC(C)(Cc1ccc(Oc2ccc(C(N)=O)cc2Cl)cc1)NC[C@H](O)COc1ccccc1-c1cscn1.Cl` [Example 253], the “Emax (%) ± SEM” value under setting [1] came to 37.6 ± 2.7%. With `CC(C)(Cc1ccc(Oc2ccc(C#N)cc2)cc1)NC[C@H](O)COc1ccccc1-c1nccs1.O=C(O)C(F)(F)F` [Example 120], under setting [1], the “Emax (%) ± SEM” value is on record as 35.8 ± 4.6%.

Regarding `CC(C)(Cc1ccc(Oc2ccc(C(N)=O)nc2)cc1)NC[C@H](O)COc1ccccc1-c1nccs1.O=C(O)C(F)(F)F` [Example 206], the “Emax (%) ± SEM” value under setting [1] worked out at 64.2 ± 8.1%.

With `CC(C)(Cc1ccc(Oc2ccc(S(C)(=O)=O)cc2)cc1)NC[C@H](O)COc1ccccc1-c1ccco1.Cl` [Example 395], the “Emax (%) ± SEM” value under setting [3] is given as 46.6 ± 5.9%. In the case of `CC(C)(Cc1ccc(Oc2ccccc2C(N)=O)cc1)NC[C@H](O)COc1ccccc1-n1cccc1.Cl` [Example 270], the “Emax (%) ± SEM” value under setting [1] stood at 56.4 ± 8.3%. Take `CC(C)(Cc1ccc(Oc2ncccc2C(N)=O)cc1)NC[C@H](O)COc1cc(Cl)ccc1-c1nnco1` [Example 87]: under setting [1], the “Emax (%) ± SEM” value is listed as 14.2 n = 1%. The same measure, in the same setting: for `CC(C)(Cc1ccc(Oc2ncccc2C(N)=O)cc1)NC[C@H](O)COc1ccccc1N1CCCC1=O` [Example 77] the value was 22.4 ± 4.6%.

For `CC(C)(Cc1ccc(Oc2ncccc2C(N)=O)cc1)NC[C@H](O)COc1ccccc1N1CCNCC1.Cl.Cl.Cl` [Example 80], the “Emax (%) ± SEM” value under setting [1] is listed as 12.3 ± 0.2%.

`CC(C)(Cc1ccc(Oc2ncccc2C#N)cc1)NC[C@H](O)COc1ccccc1-c1ccno1` [Example 53]: under setting [1], the “Emax (%) ± SEM” value is recorded as 74.5 ± 12.5%. `CC(C)(Cc1ccc(Oc2ccc(Cl)cn2)cc1)NC[C@H](O)COc1ccccc1-c1ccno1.O=C(O)C(F)(F)F` [Example 169]: the “Emax (%) ± SEM” value under setting [1] was determined as 43.3 ± 6.8%. On the same count and under the same terms, the same measure for `CC(C)(Cc1ccc(Oc2ccccc2C(N)=O)cc1)NC[C@H](O)COc1ccccc1-c1cscn1.Cl` [Example 244]: 66.6 ± 5.7%. On to `CC(C)(Cc1ccc(Oc2ccc(C#N)s2)cc1)NC[C@H](O)COc1ccccc1-c1nccs1.O=C(O)C(F)(F)F` [Example 328], for which the “Emax (%) ± SEM” value under setting [2] was determined as 57.4 ± 6.5%. On to `CC(C)(Cc1ccc(Oc2ccc(C(N)=O)cc2Cl)cc1)NC[C@H](O)COc1ccccc1-c1nccs1.O=C(O)C(F)(F)F` [Example 165], for which the “Emax (%) ± SEM” value under setting [1] is on record as 49.7 ± 3.9%. Consider `CC(C)(Cc1ccc(Oc2ccc(C(N)=O)o2)cc1)NC[C@H](O)COc1ccccc1-c1nccs1.O=C(O)C(F)(F)F` [Example 327], for which the “Emax (%) ± SEM” value under setting [2] is 56.7 ± 2.1%.
